Results published in patent publication US20200237937A1, “COMPOSITIONS AND METHODS FOR ASSESSING […] PATHOLOGY” (Navidea Biopharmaceuticals, Inc., priority 2019, published 2020).
Like-named read-outs stand apart in the source and are kept apart here.

Columns and labels:
mannose receptor (CD206) [1] = target: T1, mannose receptor (CD206) (Homo sapiens, UniProt P22897); conditions: for Mean Joint Specific MARTAD: 5 healthy subjects, IV, 10 mCi 99mTc; for Cutoff Value (MARTAD 2 S.D. above the joint specific mean): from 5 healthy subjects
Description: In certain aspects, the pixel intensities of the ROI and RR are used to derive normalized region-specific mannose receptor targeted localization determination (MARTAD) value. The MARTAD value is quantitative index of the amount of imaging agent localization that can be attributable to disease activity in planar images. Defined broadly, the MARTAD value is determined by assessing the ratio of average pixel intensity of the ROI to the average pixel intensity of the RR. In certain alternative embodiments, the MARTAD value is determined by assessing the ratio of maximum pixel intensity of the ROI to the maximum pixel intensity of the RR.
Following MARTAD value determination for a joint or plurality of joints, the MARTAD value can be used to determine macrophage involvement by comparing the MARTAD of the first joint to a normal MARTAD value for a corresponding joint (e.g., RtPIP2 RA vs RtPIP2 healthy). In certain implementations, the normal MARTAD value is determined by aggregating the MARTAD values for each joint from a pool of healthy subjects (e.g., not suffering from RA). In exemplary implementations, the method for defining the joint specific RR in the pool of healthy subjects will be the same as that used for the patient population. Macrophage involvement in a subject is indicated by a joint specific MARTAD value that exceeds the normal MARTAD value by a predetermined threshold. […] In certain alternative implementations, the predetermined threshold subject joint MARTAD value greater above the 95% confidence interval of the average MARTAD value corresponding joint from the plurality of healthy subjects.
(§1) The mass dose of tilmanocept injected into the subjects varied from 125 μg to 400 μg. […] The images shown in FIGS. 1 and 2 were acquired using a Siemens Symbia Intevo camera. Image acquisition times varied between studies from 5-10 minutes.
Cutoff values for determination of macrophage involvement in RA inflammation set at MARTAD values greater than 2 S.D. above the joint specific mean.

mannose receptor (CD206) [2] = target: T1, mannose receptor (CD206)
Description: as §1

T1 sequence (P22897 19-1456): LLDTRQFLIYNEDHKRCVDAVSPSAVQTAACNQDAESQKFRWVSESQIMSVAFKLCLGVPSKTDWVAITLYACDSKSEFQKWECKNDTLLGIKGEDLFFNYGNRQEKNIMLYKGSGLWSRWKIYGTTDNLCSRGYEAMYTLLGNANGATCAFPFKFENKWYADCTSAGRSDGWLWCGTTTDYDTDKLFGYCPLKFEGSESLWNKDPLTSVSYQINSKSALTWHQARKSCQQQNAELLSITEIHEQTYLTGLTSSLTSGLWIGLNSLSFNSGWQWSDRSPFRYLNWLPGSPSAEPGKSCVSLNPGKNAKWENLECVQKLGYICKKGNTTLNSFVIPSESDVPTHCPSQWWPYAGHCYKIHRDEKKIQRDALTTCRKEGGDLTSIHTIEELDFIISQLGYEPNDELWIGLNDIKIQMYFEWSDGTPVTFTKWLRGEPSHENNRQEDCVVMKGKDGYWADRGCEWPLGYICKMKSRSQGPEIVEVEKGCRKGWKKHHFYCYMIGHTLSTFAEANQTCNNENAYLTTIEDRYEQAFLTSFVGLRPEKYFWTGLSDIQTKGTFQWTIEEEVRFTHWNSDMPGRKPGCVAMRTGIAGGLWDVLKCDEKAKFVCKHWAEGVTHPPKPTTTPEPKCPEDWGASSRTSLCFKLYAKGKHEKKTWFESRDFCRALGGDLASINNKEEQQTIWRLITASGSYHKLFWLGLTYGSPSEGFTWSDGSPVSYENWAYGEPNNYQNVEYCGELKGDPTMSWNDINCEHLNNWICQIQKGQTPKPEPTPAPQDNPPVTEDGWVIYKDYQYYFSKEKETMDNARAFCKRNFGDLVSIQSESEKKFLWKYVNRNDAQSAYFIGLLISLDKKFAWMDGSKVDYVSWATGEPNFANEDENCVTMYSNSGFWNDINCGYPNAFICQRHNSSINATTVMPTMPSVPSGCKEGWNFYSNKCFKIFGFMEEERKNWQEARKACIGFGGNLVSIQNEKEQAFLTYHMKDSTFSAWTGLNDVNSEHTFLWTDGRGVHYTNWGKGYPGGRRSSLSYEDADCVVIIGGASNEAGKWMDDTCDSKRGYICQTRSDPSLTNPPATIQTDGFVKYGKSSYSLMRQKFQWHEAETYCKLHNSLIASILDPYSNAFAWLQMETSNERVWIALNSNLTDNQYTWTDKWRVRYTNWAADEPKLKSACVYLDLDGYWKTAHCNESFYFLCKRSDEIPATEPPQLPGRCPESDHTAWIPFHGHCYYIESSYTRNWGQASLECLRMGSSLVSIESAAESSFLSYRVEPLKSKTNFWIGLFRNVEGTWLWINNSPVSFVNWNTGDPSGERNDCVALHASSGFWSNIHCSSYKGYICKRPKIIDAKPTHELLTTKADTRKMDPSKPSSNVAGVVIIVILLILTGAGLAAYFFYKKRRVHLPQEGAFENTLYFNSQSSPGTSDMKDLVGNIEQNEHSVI

Substance: dextran 3-[(2-aminoethyl)thio]propyl 17-carboxy-10,13,16-tris(carboxymethyl)-8-oxo-4-thia-7,10,13,16-tetraazaheptadec-1-yl 3-[[2-[[1-imino-2-(D-mannopyranosylthio)ethyl]amino]ethyl]thio]propyl ether complexes [Tc99m-tilmanocept]
- Mean Joint Specific MARTAD (mannose receptor (CD206) [1]; MCP1): 0.87
- Cutoff Value (MARTAD 2 S.D. above the joint specific mean) (mannose receptor (CD206) [1]; MCP1): 0.99
- Mean Joint Specific MARTAD (mannose receptor (CD206) [1]; MCP2): 0.86
- Cutoff Value (MARTAD 2 S.D. above the joint specific mean) (mannose receptor (CD206) [1]; MCP2): 1.13
- Mean Joint Specific MARTAD (mannose receptor (CD206) [1]; MCP3): 0.79
- Cutoff Value (MARTAD 2 S.D. above the joint specific mean) (mannose receptor (CD206) [1]; MCP3): 0.93
- Mean Joint Specific MARTAD (mannose receptor (CD206) [1]; MCP4): 0.77
- Cutoff Value (MARTAD 2 S.D. above the joint specific mean) (mannose receptor (CD206) [1]; MCP4): 1.00
- Mean Joint Specific MARTAD (mannose receptor (CD206) [1]; MCP5): 0.76
- Cutoff Value (MARTAD 2 S.D. above the joint specific mean) (mannose receptor (CD206) [1]; MCP5): 1.08
- Mean Joint Specific MARTAD (mannose receptor (CD206) [1]; PIP1): 0.98
- Cutoff Value (MARTAD 2 S.D. above the joint specific mean) (mannose receptor (CD206) [1]; PIP1): 1.21
- Mean Joint Specific MARTAD (mannose receptor (CD206) [1]; PIP2): 1.05
- Cutoff Value (MARTAD 2 S.D. above the joint specific mean) (mannose receptor (CD206) [1]; PIP2): 1.34
- Mean Joint Specific MARTAD (mannose receptor (CD206) [1]; PIP3): 1.03
- Cutoff Value (MARTAD 2 S.D. above the joint specific mean) (mannose receptor (CD206) [1]; PIP3): 1.39
- Mean Joint Specific MARTAD (mannose receptor (CD206) [1]; PIP4): 0.93
- Cutoff Value (MARTAD 2 S.D. above the joint specific mean) (mannose receptor (CD206) [1]; PIP4): 1.19
- Mean Joint Specific MARTAD (mannose receptor (CD206) [1]; PIP5): 0.87
- Cutoff Value (MARTAD 2 S.D. above the joint specific mean) (mannose receptor (CD206) [1]; PIP5): 1.14
- Mean Joint Specific MARTAD (mannose receptor (CD206) [1]; Wrists, images 45-75 min after injection): 1.04
- Cutoff Value (MARTAD 2 S.D. above the joint specific mean) (mannose receptor (CD206) [1]; Wrists): 1.24
- Sensitivity of MARTAD values to image acquisition time (mannose receptor (CD206) [2]; image acquisition times 5-10 minutes): not sensitive
- Effect of mass dose on image quality (mannose receptor (CD206) [2]; mass dose of tilmanocept 125 μg to 400 μg IV, separate studies (not shown)): did not impact image quality
- MARTAD values of repeat images versus first images (mannose receptor (CD206) [2]; repeat images 180-240 minutes after injection vs 45-75 minutes, same subjects): statistically similar
